Assay [1] has as its target T1, Beta-secretase 1 (Homo sapiens, UniProt P56817).
In assay [2] the target is T1, Beta-secretase 1. The source holds these as a separate data set.
In the next assay the target is Cathepsin D (Homo sapiens, UniProt P07339).
For assay [3], the species on record is Rattus norvegicus. Conditions: dose 10 mg/kg; route oral.
The species entered for assay [4] is Rattus norvegicus. Conditions: dose 10 mg/kg; route oral. The source holds these as a separate data set.
The species named for assay [5] is Rattus norvegicus. In words: animal or person. The settings on record: Sprague-Dawley, Cerebrospinal fluid, po, 4 h, read-out: INH.

From ChEMBL document CHEMBL3393054, “Development of 2-aminooxazoline 3-azaxanthenes as orally efficacious β-secretase inhibitors for the potential treatment of Alzheimer's disease” (Bioorg Med Chem Lett, 2015) come the findings set out here.

SMILES strings stand for the structures.

Cathepsin D, sequence (P07339 65-162 limits assumed): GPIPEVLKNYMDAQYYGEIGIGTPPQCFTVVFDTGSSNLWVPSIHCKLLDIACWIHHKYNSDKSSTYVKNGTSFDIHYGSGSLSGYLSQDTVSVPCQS
Cathepsin D, sequence (P07339 169-412 limits assumed): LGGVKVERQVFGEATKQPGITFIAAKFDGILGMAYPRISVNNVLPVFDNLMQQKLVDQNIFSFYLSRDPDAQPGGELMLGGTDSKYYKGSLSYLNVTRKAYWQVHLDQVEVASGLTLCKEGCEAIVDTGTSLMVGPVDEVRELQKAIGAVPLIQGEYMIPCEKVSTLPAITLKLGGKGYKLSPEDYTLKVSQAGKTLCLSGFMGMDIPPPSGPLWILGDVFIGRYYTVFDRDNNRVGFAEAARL
T1 sequence (P56817 whole entry): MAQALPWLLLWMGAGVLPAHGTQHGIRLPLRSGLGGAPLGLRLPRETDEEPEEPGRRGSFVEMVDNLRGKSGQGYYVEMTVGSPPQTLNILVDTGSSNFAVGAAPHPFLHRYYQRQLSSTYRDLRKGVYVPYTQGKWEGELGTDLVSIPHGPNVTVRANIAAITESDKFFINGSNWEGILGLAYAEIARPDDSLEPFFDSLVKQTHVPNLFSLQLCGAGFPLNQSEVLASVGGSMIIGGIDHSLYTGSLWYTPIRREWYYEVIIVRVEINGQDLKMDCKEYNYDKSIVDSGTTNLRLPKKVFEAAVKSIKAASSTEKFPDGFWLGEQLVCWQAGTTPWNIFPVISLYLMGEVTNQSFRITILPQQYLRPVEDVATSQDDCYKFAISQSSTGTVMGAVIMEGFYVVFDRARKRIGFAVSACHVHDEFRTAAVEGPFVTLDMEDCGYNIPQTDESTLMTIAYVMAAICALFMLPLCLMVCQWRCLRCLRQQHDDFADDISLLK

Usually IC50 stands for the concentration at which inhibition is half-maximal. Read a high IC50 as lower potency. For the compound `NC1=N[C@@]2(CO1)c1cc(-c3cccnc3F)ccc1Oc1cnc(C3=CCOCC3)cc12`, the IC50 came to 4.2 nM at Beta-secretase 1 [1], 0.7 nM against Beta-secretase 1 [2] and 640 nM on Cathepsin D. The values for the fEC50 in the assay listed under Rattus norvegicus [3] and in the assay filed under Rattus norvegicus [4] were 27 nM and 60 nM, respectively.

Regarding `CC1(C)C=C(c2cc3c(cn2)Oc2ccc(-c4cccnc4F)cc2[C@@]32COC(N)=N2)CCO1`, the IC50 at Beta-secretase 1 [1] stood at 7.4 nM; against Beta-secretase 1 [2] it was 0.9 nM; at Cathepsin D it was 710 nM. The fEC50 in the assay listed under Rattus norvegicus [3] amounted to 34 nM; in the assay filed under Rattus norvegicus [4] it was 57 nM. Also, the inhibition in vivo at 10 mg/kg in the assay listed under Rattus norvegicus [5] was 76%.

On to `NC1=N[C@@]2(CO1)c1cc(-c3cccnc3F)ccc1Oc1cnc(C3=CCCOC3)cc12`, for which the IC50 against Beta-secretase 1 [1] was 7.9 nM; against Beta-secretase 1 [2], 0.5 nM; against Cathepsin D, 1080 nM. Further, the figures for the fEC50 in the assay filed under Rattus norvegicus [3] and in the assay filed under Rattus norvegicus [4] were 16 nM and 31 nM, respectively.

Consider `NC1=N[C@@]2(CO1)c1cc(-c3cccnc3F)ccc1Oc1cnc(C3CCOCC3)cc12`, for which the IC50 came to 49.5 nM at Beta-secretase 1 [1], 7.1 nM against Beta-secretase 1 [2] and 3390 nM at Cathepsin D. Also, the values for the fEC50 in the assay filed under Rattus norvegicus [3] and in the assay listed under Rattus norvegicus [4] were 339 nM and 659 nM, respectively.

For `NC1=N[C@@]2(CO1)c1cc(-c3cccnc3F)ccc1Oc1cnc(C3CCCOC3)cc12` (some centres undefined), the IC50 worked out at 123 nM at Beta-secretase 1 [1], 11.3 nM at Beta-secretase 1 [2] and 5800 nM at Cathepsin D.

Turning to `NC1=N[C@@]2(CO1)c1cc(-c3cccnc3F)ccc1Oc1cnc([C@@H]3CCCCO3)cc12`, the IC50 at Cathepsin D was determined as 11600 nM.

`NC1=N[C@@]2(CO1)c1cc(-c3cccnc3F)ccc1Oc1cnc([C@H]3CCCCO3)cc12` returned an IC50 at Cathepsin D of 1040 nM.

As for `NC1=N[C@@]2(CO1)c1cc(-c3cccnc3F)ccc1Oc1cnc(N3CCOCC3)cc12`, the IC50 stood at 20.5 nM against Beta-secretase 1 [1] and 600 nM against Cathepsin D.

Consider `CC1(C)CN(c2cc3c(cn2)Oc2ccc(-c4cccnc4F)cc2[C@@]32COC(N)=N2)CCO1`, for which the IC50 on Beta-secretase 1 [1] came to 22 nM; on Beta-secretase 1 [2], 4 nM; against Cathepsin D, 530 nM.

On to `NC1=N[C@@]2(CO1)c1cc(-c3cccnc3F)ccc1Oc1cnc(N3CCC(F)(F)CC3)cc12`, for which the IC50 against Beta-secretase 1 [1] was 8.7 nM; against Cathepsin D, 140 nM. In addition, the fEC50 in the assay filed under Rattus norvegicus [4] is on record as 54 nM.

For `NC1=N[C@@]2(CO1)c1cc(-c3cccnc3F)ccc1Oc1cnc(N3CCC(F)(F)C3)cc12`, the IC50 against Beta-secretase 1 [1] was determined as 4.1 nM; against Cathepsin D, 440 nM. For the same compound, the fEC50 amounted to 32 nM in the assay filed under Rattus norvegicus [3] and 38 nM in the assay filed under Rattus norvegicus [4].

`NC1=N[C@@]2(CO1)c1cc(-c3cccnc3F)ccc1Oc1cnc(N3CC[C@H](F)C3)cc12`: half-maximal inhibition against Cathepsin D (IC50) was put at 2220 nM.

The compound `NC1=N[C@@]2(CO1)c1cc(-c3cccnc3F)ccc1Oc1cnc(N3CC[C@@H](F)C3)cc12` displayed an IC50 on Cathepsin D of 680 nM.

As for `NC1=N[C@@]2(CO1)c1cc(-c3cccnc3F)ccc1Oc1cnc(-c3ccccc3)cc12`, the IC50 on Beta-secretase 1 [1] turned out to be 25.3 nM; against Beta-secretase 1 [2], 1.4 nM; on Cathepsin D, 650 nM.

For `NC1=N[C@@]2(CO1)c1cc(-c3cccnc3F)ccc1Oc1cnc(-c3ccccn3)cc12`, the values for the IC50 against Beta-secretase 1 [1], on Beta-secretase 1 [2] and against Cathepsin D were 26.6 nM, 3.8 nM and 4100 nM, respectively.

`NC1=N[C@@]2(CO1)c1cc(-c3cccnc3F)ccc1Oc1cnc(-c3ccncc3)cc12`: the results for the IC50 against Beta-secretase 1 [1], against Beta-secretase 1 [2] and against Cathepsin D were 16 nM, 2.5 nM and 3190 nM, respectively. The fEC50 worked out at 365 nM in the assay filed under Rattus norvegicus [3] and 745 nM in the assay filed under Rattus norvegicus [4]. Also, the inhibition in vivo at 10 mg/kg in the assay filed under Rattus norvegicus [5] was found to be 56%.

As to `Cc1cc(-c2cc3c(cn2)Oc2ccc(-c4cccnc4F)cc2[C@@]32COC(N)=N2)ccn1`, the 50% inhibitory concentration (IC50) was 15 nM against Beta-secretase 1 [1], 2.4 nM against Beta-secretase 1 [2] and 3870 nM against Cathepsin D. The fEC50 was 30 nM in the assay listed under Rattus norvegicus [3] and 62 nM in the assay filed under Rattus norvegicus [4]. Besides, the inhibition in vivo at 10 mg/kg in the assay listed under Rattus norvegicus [5] stood at 60%.

At Beta-secretase 1 [1], `NC1=N[C@]2(CO1)c1cc(C3=CCOCC3)ccc1Oc1ccc(-c3cccnc3F)cc12` displayed an IC50 of 18.5 nM.
